Experimental data taken from ChEMBL document CHEMBL5614445, “Asymmetric Dirhodium-Catalyzed Modification of Immunomodulatory Imide Drugs and Their Biological Assessment” (ACS Med Chem Lett, 2024).

Tests used:
Format in all cases: cell-based
[1] = target: Casein kinase I isoform alpha (Homo sapiens) (UniProt P48729); assay: Induction of ePL tagged CK1alpha degradation in human MDS-L cells assessed as remaining protein level incubated for 60 mins by luminescence reader assay relative to control
[2] = target: Zinc finger protein Aiolos (Homo sapiens) (UniProt Q9UKT9); assay: Induction of N-terminal HiBiT tag knocked in IKZF3 degradation in human DF15 cells assessed as remaining protein level incubated for 60 mins by Nano-Glo HiBiT lytic reagent based assay relative to control
Zinc finger protein Aiolos (Homo sapiens), sequence (Q9UKT9 whole entry): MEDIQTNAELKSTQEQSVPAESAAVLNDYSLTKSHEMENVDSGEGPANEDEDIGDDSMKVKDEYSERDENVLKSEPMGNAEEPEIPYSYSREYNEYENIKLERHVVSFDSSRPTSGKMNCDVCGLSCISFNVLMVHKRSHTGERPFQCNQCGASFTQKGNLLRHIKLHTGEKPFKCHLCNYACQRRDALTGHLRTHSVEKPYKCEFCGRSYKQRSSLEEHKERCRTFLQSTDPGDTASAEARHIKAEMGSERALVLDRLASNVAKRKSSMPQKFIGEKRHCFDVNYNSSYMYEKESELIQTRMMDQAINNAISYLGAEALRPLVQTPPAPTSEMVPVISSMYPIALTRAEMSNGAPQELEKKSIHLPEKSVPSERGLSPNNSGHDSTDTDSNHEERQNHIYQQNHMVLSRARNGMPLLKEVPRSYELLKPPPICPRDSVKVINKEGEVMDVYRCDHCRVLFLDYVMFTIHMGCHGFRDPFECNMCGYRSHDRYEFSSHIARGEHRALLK

[3] = target: T1, Eukaryotic peptide chain release factor GTP-binding subunit ERF3A (Homo sapiens, UniProt P15170); assay: Induction of ePL tagged GSPT1 degradation in human DF15 cells assessed as remaining protein level incubated for 60 mins by luminescence reader assay relative to control
T1 sequence (P15170 whole entry): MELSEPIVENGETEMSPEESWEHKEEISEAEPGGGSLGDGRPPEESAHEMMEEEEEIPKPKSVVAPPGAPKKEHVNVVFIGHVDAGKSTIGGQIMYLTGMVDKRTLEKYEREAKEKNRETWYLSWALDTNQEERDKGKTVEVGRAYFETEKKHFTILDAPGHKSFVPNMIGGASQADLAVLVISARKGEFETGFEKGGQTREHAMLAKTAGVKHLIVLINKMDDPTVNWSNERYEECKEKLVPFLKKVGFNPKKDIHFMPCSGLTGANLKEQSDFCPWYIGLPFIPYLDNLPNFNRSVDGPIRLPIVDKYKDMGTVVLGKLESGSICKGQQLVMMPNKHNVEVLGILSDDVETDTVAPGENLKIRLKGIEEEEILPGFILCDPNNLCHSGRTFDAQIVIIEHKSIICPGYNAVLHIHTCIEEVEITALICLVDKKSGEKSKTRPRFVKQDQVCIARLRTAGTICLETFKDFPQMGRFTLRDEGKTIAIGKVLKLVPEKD

[4] = target: T1, Eukaryotic peptide chain release factor GTP-binding subunit ERF3A; assay: Induction of ePL tagged GSPT1 degradation in human DF15 cells incubated for 60 mins by luminescence reader assay; conditions: read-out: EC50 (the source's name)

Casein kinase I isoform alpha (Homo sapiens), sequence (P48729 2-337 limits assumed): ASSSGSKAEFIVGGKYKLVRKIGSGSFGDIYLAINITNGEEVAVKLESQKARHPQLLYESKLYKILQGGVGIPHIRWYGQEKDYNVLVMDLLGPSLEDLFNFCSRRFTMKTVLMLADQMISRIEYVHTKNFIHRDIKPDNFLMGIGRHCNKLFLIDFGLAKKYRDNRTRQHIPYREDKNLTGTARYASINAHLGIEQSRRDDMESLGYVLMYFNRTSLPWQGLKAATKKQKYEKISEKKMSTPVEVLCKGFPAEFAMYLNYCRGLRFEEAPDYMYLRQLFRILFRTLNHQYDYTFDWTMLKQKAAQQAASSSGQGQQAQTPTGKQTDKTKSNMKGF

| SMILES | Activity [2] [%] | Activity [3] [%] | further results |
| --- | --- | --- | --- |
| O=C1CCC(N2Cc3cc([C@H]4C[C@@]4(C(=O)OCC(Cl)(Cl)Cl)c4ccc(Br)cc4)ccc3C2=O)C(=O)N1 (some centres undefined) |  |  | Activity [1]: 44% |
| O=C1CCC(N2C(=O)c3cccc([C@H]4C[C@@]4(C(=O)OCC(Cl)(Cl)Cl)c4ccc(Br)cc4)c3C2=O)C(=O)N1 (some centres undefined) | 99 |  |  |
| O=C1CCC(N2Cc3c(cccc3[C@@H]3C[C@]3(C(=O)OCC(Cl)(Cl)Cl)c3ccc(Br)cc3)C2=O)C(=O)N1 (some centres undefined) | 79 |  |  |
| O=C1CCC(N2C(=O)c3ccc(C4=C[C@@]4(C(=O)OCC(Cl)(Cl)Cl)c4ccc(Br)cc4)cc3C2=O)C(=O)N1 (some centres undefined) |  | 1.4 | DC50 [4]: 1400 nM |
| O=C1CCC(N2C(=O)c3ccc([C@@H]4C[C@]4(C(=O)OCC(Cl)(Cl)Cl)c4ccc(Br)cc4)cc3C2=O)C(=O)N1 (some centres undefined) |  | 100 |  |
| O=C1CCC(N2Cc3c(cccc3C3=C[C@]3(C(=O)OCC(Cl)(Cl)Cl)c3ccc(Br)cc3)C2=O)C(=O)N1 (some centres undefined) | 9.2 |  |  |
| O=C1CCC(N2Cc3cc([C@@H]4C[C@]4(C(=O)OCC(Cl)(Cl)Cl)c4ccc(Br)cc4)ccc3C2=O)C(=O)N1 (some centres undefined) |  |  | Activity [1]: 92% |
| O=C1CCC(N2C(=O)c3ccc(C4=C[C@]4(C(=O)OCC(Cl)(Cl)Cl)c4ccc(Br)cc4)cc3C2=O)C(=O)N1 (some centres undefined) |  | 2.3 |  |
